Converted amounts (≈) assume the structure as drawn. The source made the active and inactive calls. No cut-off for these calls is given here.

Among the data in ChEMBL document CHEMBL1141847, “A new antibiotic nortriterpene quinone methide from Maytenus catingarum” (1999) are MIC and Activity values, retold here.

One assay relates to Bacillus subtilis. Description: Antimicrobial activity against Bacillus subtilis CECT39. It is filed as functional.
A further assay relates to Staphylococcus aureus. Description: Antimicrobial activity against Staphylococcus aureus ATCC 6538. Type of assay: functional.
The test system of another assay is Escherichia coli. In words: Antimicrobial activity against Escherichia coli CECT99. Type of assay: functional, organism-based.
The subject of a further assay is Salmonella typhimurium. Description: Antimicrobial activity against sSalmonella Typhimurium UBC1. It is filed as functional, organism-based. The note with it: Salmonella enterica subsp. enterica serovar Typhimurium.
The subject of a further assay is Candida albicans. Description: Antimicrobial activity against Candida albicans UBC2. Type of assay: functional, organism-based.

Regarding `COC(=O)[C@@]1(C)C[C@@H]2[C@](C)(CC1=O)C[C@H](O)[C@]1(C)C3=CC=C4C(=CC(=O)C(O)=C4C)[C@]3(C)CC[C@@]21C`, the results for the MIC in the assay with Bacillus subtilis and in the assay on Staphylococcus aureus were 1.25 µg/mL (≈ 2.53 µM) and 5 µg/mL (≈ 10.1 µM), respectively. Besides, the outcome in the assay with Escherichia coli, in the assay with Salmonella typhimurium and with Candida albicans was inactive.

In general, MIC refers to the lowest concentration that inhibits growth of the organism. The low end stands for a more susceptible organism, the high end for a less susceptible organism.
